What was measured:
FR = details: cited from earlier work
FRα = biological target: T1, FRα (Homo sapiens, UniProt P15328); experiment: Folate-FITC binding competition assay (flow cytometry), FRα on KB cells; details: competition with 10 nM Folate-FITC
T1 construct: Human KB nasopharyngeal epidermoid carcinoma cells (expressing FRα); endogenous in cells; host or cells: KB nasopharyngeal epidermoid carcinoma cells
Procedure: (§1) To assess the binding affinity of the terbium-folate conjugates, a flow cytometry binding competition assay was carried out with folate-FITC and increasing concentrations of terbium-folate conjugates with FRα and FRβ expressing cells. The affinity of FRα and FRβ for the terbium-folate conjugates is expressed relative to folic acid, which is given the value of 1.
(§2) Human KB nasopharyngeal epidermoid carcinoma cells (expressing FRα) and FRβ-transfected Chinese Hamster Ovary cells were cultured in Folate-free RPMI medium (Thermo Fisher Scientific) supplemented with 20% Newborn Calf Serum, 1% antibiotics (penicillin and streptomycin) and 25 mM HEPES, in a humidified 37 °C incubator with 5% CO2 as described by Van der Heijden et al.[4] The culture medium was refreshed every 3 days. Stock solutions (1 mM) of Tb-folate conjugates were made by dissolving in 50 mM NaHCO3 and stored at −20 °C until use. […] Flow cytometry data was analyzed in FlowJo v10.8 Software (BD Life Sciences). […] Data from 6–9 replicative experiments were analyzed. […]
(§3) Considering FRα and FRβ share the same affinity for folic acid and Folate-FITC, relative affinities for Tb-folate compounds were expressed relative to folic acid.[59],[60] The relative affinity was calculated using [drawing 1] […]

FRβ = biological target: T2, FRβ (Homo sapiens, UniProt P14207); experiment: Folate-FITC binding competition assay (flow cytometry), FRβ on CHO/FRβ transfected cells; details: competition with 1 nM Folate-FITC
T2 construct: expressed in transfected cells; host or cells: Chinese Hamster Ovary (CHO) cells
Procedure: as §1, §2, §3

[1] = design: method as in PMID 30296376; details: λex = 776 nm, λem = 793 nm; cited from earlier work
[2] = design: method as in PMID 30296376; details: λex = 776 nm; cited from earlier work
[3] = UV-vis absorption (molar extinction coefficient); assay type: physicochemical; details: H2O, λmax = 281 nm, mixture of regioisomers
Description: The absorption spectrum of folic acid is characterized by two absorption bands in the region of 250–300 and 300–400 nm, which correspond to the π → π* transition for the pterin and the n → π* transition for the p-amino benzoyl acid moieties respectively.[46] […] Differences are observed for TbL,^4 which is red-shifted and broadened due to the overlap with the acetophenone moiety; similar absorbance spectra of acetophenone-folate complexes have been reported by Quici et al.[16]
UV–vis spectra were recorded on a Cary60 UV–vis spectrophotometer fitted with a xenon source lamp or on a Jasco V-770 UV–visible/NIR spectrophotometer.

T2 sequence (P14207 17-255): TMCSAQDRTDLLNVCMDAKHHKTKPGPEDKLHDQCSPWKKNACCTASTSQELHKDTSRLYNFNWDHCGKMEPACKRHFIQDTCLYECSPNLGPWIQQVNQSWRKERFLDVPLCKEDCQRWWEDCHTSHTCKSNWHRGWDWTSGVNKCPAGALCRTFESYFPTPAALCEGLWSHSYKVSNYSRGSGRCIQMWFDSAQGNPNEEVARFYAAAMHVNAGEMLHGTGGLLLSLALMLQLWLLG
T1 sequence (P15328 25-257): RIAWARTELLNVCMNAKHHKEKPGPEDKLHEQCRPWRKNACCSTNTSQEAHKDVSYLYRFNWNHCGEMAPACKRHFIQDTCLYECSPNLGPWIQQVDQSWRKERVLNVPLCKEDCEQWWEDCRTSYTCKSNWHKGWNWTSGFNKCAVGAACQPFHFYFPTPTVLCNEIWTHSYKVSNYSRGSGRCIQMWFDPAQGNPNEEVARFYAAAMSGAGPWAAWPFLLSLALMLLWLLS

## CN1c2c(nc(N)[nH]c2=O)NCC1CNc1ccc(C(=O)N[C@@H](CCC(=O)O)C(=O)O)cc1 (stereo partly drawn) [5-methyltetrahydrofolate]
FR
  FR affinity, fold lower than folic acid: approximately 10 fold

## Nc1nc(=O)c2nc(CNc3ccc(C(=O)N[C@@H](CCC(=O)O)C(=O)O)cc3)cnc2[nH]1 [ChEBI_27470, folic acid]
FRα
  relative binding affinity to FRα (folic acid = 1): 1
FRβ
  relative binding affinity to FRβ (folic acid = 1): 1

## CC1(C)C(/C=C/C2=C(Oc3ccc(C[C@H](NC(=O)c4ccc(NCc5cnc6nc(N)[nH]c(=O)c6n5)cc4)C(=O)[O-])cc3)C(=C/C=C3\N(CCCCS(=O)(=O)[O-])c4ccc(S(=O)(=O)[O-])cc4C3(C)C)/CCC2)=[N+](CCCCS(=O)(=O)[O-])c2ccc(S(=O)(=O)[O-])cc21.[H+].[H+].[H+].[H+] [OTL38]
[1]
  Φ (quantum yield): 15.1%
[2]
  ε (molar extinction coefficient): 272 000 M^–1 cm^–1

## Folate-PEG6-DOTA [L^1αγ]
[3]
  ε (molar extinction coefficient) of free ligand: 20013 M^–1 cm^–1
